Measurements from article PMC5432742, “Vasorelaxing and antihypertensive activities of synthesized peptides derived from computer-aided simulation of pepsin hydrolysis of yam dioscorin” (Botanical Studies, 2014).
Where two headings read alike, the source gives them in different places.

Assays:
[1] = trolox equivalents (TE); ref Hernández-Ledesma et al. 2005; cited from earlier work
[2] = system: endothelium-intact rat thoracic aortic rings; assay: Relaxation of phenylephrine-induced tension in endothelium-intact rat thoracic aortic rings ex vivo; parameters: species or system Sprague-Dawley rat
Description: (§1) Effects of four peptides and captopril on vascular tension were examined following the previous method (Wang et al. [2001]). Male Sprague–Dawley rats were killed by decapitation, and sections of the thoracic aorta between the aortic arch and the diaphragm were excised carefully and placed in a Petri dish with oxygenated Krebs’ buffer (120 mM NaCl, 4.5 mM KCl, 2.5 mM CaCl2, 1 mM MgSO4, 27 mM NaHCO3, 1 mM KH2PO4, 10 mM glucose, pH 7.4, with 95% O2, 5% CO2) and gently dissected free of fat and connective tissue. The endothelium was removed by gently rubbing the intimal layer of the vessel with a wire. The isolated aortic rings, 3 to 4 mm in length with or without the endothelium, were fixed isometrically in organ chambers under passive tension (1.8 g) for 60 min. Changes in vascular tension were recorded with a polygraph (Gould, model 2400, Valley View, OH, USA) via a force displacement transducer (Grass FT03, Quincy, MA, USA). After equilibration, the near maximal concentration was induced by PE (0.3 μM). When the rings achieved a stable tension, the acetylcholine (3 μM) was added to the bath to assess endothelial integrity. The relaxing effects of KTCGY, KTCGYKTCGY, TCGYTCGY, KRIHF, and captopril on PE (0.3 μM) pre-contracted endothelium-intact or endothelium-denuded aortic rings were examined. When PE treatments reached a steady plateau (considered as 100%), KTCGY, KTCGYKTCGY, TCGYTCGY, KRIHF, and captopril were then tested at cumulative concentrations (0.1 to 100 μM) for their ability to induce aortic ring relaxations.
(§2) Figure 2 Vasorelaxing activity of endothelium-intact and endothelium-denuded SD rat aortic rings in phenylephrine-induced tensions. (A) KTCGY, (B) KTCGYKTCGY, (C) TCGYTCGY, (D) KRIHF, and (E) captopril on Data were expressed as mean ± S.E.

[3] = system: endothelium-denuded rat thoracic aortic rings; assay: Relaxation of phenylephrine-induced tension in endothelium-denuded rat thoracic aortic rings ex vivo; parameters: species or system Sprague-Dawley rat; details: PE 0.3 μM; for aortic ring relaxation in endothelium-denuded rings (in words): cumulative 0.1 to 100 μM; for PE-induced endothelium-denuded aortic ring tension (PE plateau = 100%): 100 μM test substance, endothelium-denuded rings
Description: as §1, §2

[4] = system: spontaneously hypertensive rats (SHRs); assay: Antihypertensive effect in SHRs after a single oral administration (tail-cuff blood pressure); format: in vivo, rat; details: SHR, N = 6
Description: Experimental procedures were reviewed and approved by the Institutional Animal Care and Use Committee of Taipei Medical University (LAC-95-0076, LAC-97-0117, and LAC-100-0038). Male SHRs (18–28 weeks old; from National Laboratory Animal Center, Taipei, Taiwan) were housed individually in steel cages kept at 24°C under a 12-h light–dark cycle, with free access to water and a standard mouse/rat chow (Prolab® RMH2500, 5P14 Diet, PMI Nutrition International Brentwood, MO, USA). SHRs were randomly divided into 4 groups (N = 6 of each group), KTCGY or KRIHF at concentration of 10 mg/kg and 20 mg/kg was orally administered to the SHRs, and the SBP were measured after 0, 2, 4, 6, 8, and 24 h by using an indirect tail-cuff blood pressure meter (BP98-A, Softron, Tokyo, Japan). Distilled water (0.5 ml) was administered to the SHRs in the blank group. The captopril (10 mg/kg) was used as the positive control.
Figure 3 Antihypertensive activity of (A) KTCGY and (B) KRIHF on systolic blood pressure of spontaneously hypertensive rats (SHRs). KTCGY or KRIHF at concentration of 10 mg/kg and 20 mg/kg was orally administered to the SHRs (6 rats/group), and the SBP were measured after 0, 2, 4, 6, 8, and 24 h by using an indirect tail-cuff blood pressure meter (BP98-A, Softron, Tokyo, Japan). Distilled water (0.5 ml) was administered to the SHRs in the blank group. The captopril (10 mg/kg) was used as the positive control.

[5] = system: spontaneously hypertensive rats (SHRs); details: ref Fujita et al. 2000; cited from earlier work
Description: (§3) The untreated high blood pressure is considered to be the central factor in stroke which accounts approximately 33% deaths (Mark and Davis [2000]). There are several classes of pharmacological agents which have been used in the treatment of hypertension, and one class of antihypertensive drugs known as angiotensin I converting enzyme (ACE) inhibitors is associated with a low rate of adverse side effects and is the preferred class of antihypertensive agents when treating patients with concurrent secondary diseases or cardiovascular diseases (Zaman et al. [2002]). ACE (peptidyldipeptide hydr ...

ACE = details: read-out: ACE inhibition IC50, cited from earlier work
Description: as §3, with “[2002]).” for “[2002]). ACE (peptidyldipeptide hydr ...”

[6] = system: spontaneously hypertensive rats (SHRs); assay: Antihypertensive effect in SHRs after a single oral administration (tail-cuff blood pressure); format: in vivo, rat; details: 10 and 20 mg/kg single oral dose, SHR; data not shown
ACE (rabbit lung) = assay: ACE inhibitory assay screening (FAPGG substrate, absorbance at 345 nm); format: biochemical; details: peptide 40 μM; 0.5 mM FAPGG in 50 mM Tris-HCl pH 7.5, 0.3 M NaCl; 90 sec, room temperature
Description: The ACE inhibitory activity was measured following the previous reports with some modifications (Hsu et al. [2002]). Each synthesized peptide was dissolved in DMSO to 4 mM as stocks. The 1 ml, 0.5 mM FAPGG (dissolved in 50 mM Tris–HCl buffer, pH 7.5, containing 0.3 M NaCl) was mixed with 12.2 μl peptide solution, and then twenty μl ([…]) of commercial ACE (stock solution, 1U/ ml) was added. The 0.1% DMSO solution was used instead of sample solution for blank experiments (ΔAblank/min). The decreased absorbance at 345 nm (ΔAsample/min) was recorded during 90 sec at room temperature. The ACE inhibition (%) was calculated as followed: [1 - (ΔAsample/min ÷ ΔAblank/min)] × 100.
Figure 1 ACE inhibition by 23 synthesized peptides (40 μM) derived from a computer-aided simulation of pepsin hydrolysis of yam dioscorin. The 0.1% DMSO solution was used instead of sample solution for blank experiments (ΔAblank/min). The decreased absorbance at 345 nm (ΔAsample/min) was recorded during 90 sec at room temperature. The ACE inhibition (%) was calculated as followed: [1 - (ΔAsample/min ÷ ΔAblank/min)] × 100. The synthesized peptides included (1) KTCGNGME, (2) PPCSE, (3) CDDRVIRTPLT, (4) KTCGY, (5) PPCTE, (6) RDNGVIF, (7) KRIHF, (8) RRDY, (9) RSVF, (10) PTNF, (11) GISW, (12) MGSF, (13) VSIL, (14) HSPA, (15) DPF, (16) RY, (17) RF, (18) NW, (19) RL, (20) GVI, (21) GSL, (22) SY, and (23) GPA. […]

[7] = 100 μM test substance, PE 0.3 μM, endothelium-intact rings, mean ± S.E. (Figure 2), SEM

## N[C@@H](CS)C(=O)O [Cys]
[1]
  oxygen radical absorbance capacity (ORAC) activity: 0.1492 μmole TE/μmole

## N[C@@H](Cc1c[nH]cn1)C(=O)O [His]
[1]
  oxygen radical absorbance capacity (ORAC) activity: 0.073 μmole TE/μmole

## CSCC[C@H](N)C(=O)O [Met]
[1]
  oxygen radical absorbance capacity (ORAC) activity: 1.126 μmole TE/μmole

## N[C@@H](Cc1ccccc1)C(=O)O [Phe]
[1]
  oxygen radical absorbance capacity (ORAC) activity: 0.0025 μmole TE/μmole

## N[C@@H](Cc1c[nH]c2ccccc12)C(=O)O [Trp]
[1]
  oxygen radical absorbance capacity (ORAC) activity: 4.649 μmole TE/μmole

## N[C@@H](Cc1ccc(O)cc1)C(=O)O [Tyr]
[1]
  oxygen radical absorbance capacity (ORAC) activity: 1.574 μmole TE/μmole

## C[C@H](CS)C(=O)N1CCC[C@H]1C(=O)O [captopril, reference compound]
[2]; 100 µM, SEM
  PE-induced aortic ring tension (PE plateau = 100%): 26.81 ± 5.54%
[3]
  aortic ring relaxation in endothelium-denuded rings (in words): not endothelium-denuded
[4]; 10 mg/kg single oral dose, 2-h
  average reduced SBP: 26.85 mmHg
[4]; 10 mg/kg single oral dose, 4-h
  average reduced SBP: 24.97 mmHg
[4]; 10 mg/kg single oral dose, 6-h
  average reduced SBP: 29.82 mmHg
[4]; 10 mg/kg single oral dose, 8-h
  average reduced SBP: 24 mmHg
[4]; 10 mg/kg single oral dose, 24-h
  average reduced SBP: 13.80 mmHg

## ERKIKVYL
[5]
  reduction of blood pressure in SHRs (in words): none of them were effective
ACE; ref Fujita et al. 2000
  IC50: 1.2 µM

## FFGRCVSP
[5]
  reduction of blood pressure in SHRs (in words): none of them were effective
ACE; ref Fujita et al. 2000
  IC50: 0.4 µM

## KRIHF [penta-peptide, residues 118–122 of dioscorin A and dioscorin B]
[6]
  lowering of diastolic blood pressure (in words): not diastolic blood pressure
[2]; 10 μM test substance, PE 0.3 μM, endothelium-intact rings
  PE-induced aortic ring tension (PE plateau = 100%): 80.26 ± 7.82%
[2]; [7]
  PE-induced aortic ring tension (PE plateau = 100%): 19.19 ± 7.63%
ACE (rabbit lung)
  ACE inhibition (%): higher than 50%
[3]
  aortic ring relaxation in endothelium-denuded rings (in words): not endothelium-denuded
[4]; 10 mg/kg single oral dose, 2-h
  average reduced SBP: 17.30 mmHg
[4]; 10 mg/kg single oral dose, 4-h
  average reduced SBP: 21.95 mmHg
[4]; 10 mg/kg single oral dose, 6-h
  average reduced SBP: 21.47 mmHg
[4]; 10 mg/kg single oral dose, 8-h
  average reduced SBP: 16.65 mmHg
[4]; 20 mg/kg single oral dose, 2-h
  average reduced SBP: 18.57 mmHg
[4]; 20 mg/kg single oral dose, 4-h
  average reduced SBP: 19.64 mmHg
[4]; 20 mg/kg single oral dose, 6-h
  average reduced SBP: 20.87 mmHg
[4]; 20 mg/kg single oral dose, 8-h
  average reduced SBP: 8.99 mmHg

## KTCGY [penta-peptide, residues 52–56 of dioscorin B]
[6]
  lowering of diastolic blood pressure (in words): not diastolic blood pressure
[2]; [7]
  PE-induced aortic ring tension (PE plateau = 100%): 26.97 ± 7.48%
ACE (rabbit lung)
  ACE inhibition (%): higher than 50%
[3]
  aortic ring relaxation in endothelium-denuded rings (in words): not endothelium-denuded
[4]; 10 mg/kg single oral dose, 6-h
  average reduced SBP: 24.17 mmHg
[4]; 10 mg/kg single oral dose, 8-h
  average reduced SBP: 11.93 mmHg
[4]; 20 mg/kg single oral dose, 2-h
  average reduced SBP: 24.20 mmHg
[4]; 20 mg/kg single oral dose, 4-h
  average reduced SBP: 26.24 mmHg
[4]; 20 mg/kg single oral dose, 6-h
  average reduced SBP: 31.03 mmHg
[4]; 20 mg/kg single oral dose, 8-h
  average reduced SBP: 21.40 mmHg

## KTCGYKTCGY [two-repeated KTCGY]
[2]; [7]
  PE-induced aortic ring tension (PE plateau = 100%): 46.05 ± 8.02%
[3]
  PE-induced endothelium-denuded aortic ring tension (PE plateau = 100%): 66.59 ± 14.84%

## RADHPF [ovokinin (2–7), hexa-peptide isolated from chymotryptic ovalbumin hydrolysates]
ACE; ref Matoba et al. 1999
  IC50: > 1000 µM

## TCGYTCGY [two-repeated TCGY]
[2]; [7]
  PE-induced aortic ring tension (PE plateau = 100%): 43.52 ± 6.42%
[3]
  PE-induced endothelium-denuded aortic ring tension (PE plateau = 100%): 74.44 ± 15.13%
